In patent US11034710B2, “CDK9 inhibitors and polymorphs thereof for use as agents for treatment of cancer” (SUMITOMO DAINIPPON PHARMA ONCOLOGY, INC., priority 2018, dated 2021):

Key:
[1] = Four-week stability of Form B obtained using various Step 4.1 reaction conditions (40° C./75% RH, HPLC); assay type: physicochemical; settings: 40° C. ± 2° C., 75 ± 5% RH, sealed vial
Text: The results of the stability study appear in Table 21.

[2] = Stability study of amorphous Form A (decomposition to compound A-2); assay type: physicochemical
[3] = Dynamic vapor sorption (DVS) test of amorphous Form A; assay type: physicochemical; settings: 80% relative humidity
[4] = Phase I study: plasma pharmacokinetics of compound of structure (I) and alvocidib; assay type: in vivo, human
Text: Patients with advanced metastatic or progressive solid tumors who were refractory to, or intolerant of, established therapy known to provide clinical benefit for their condition were enrolled. Cohorts of 3-6 patients each received escalating doses of compound of structure (I) using a modified Fibonacci dose escalation approach. Once the optimal dose has been established, additional patients may be enrolled to confirm safety and to explore efficacy.
This is an ongoing Phase 1, open-label, dose-escalation, safety, PK and PD study. The proposed starting dose and schedule for oral compound of structure (I) was a 1-mg flat dose once daily (QD) for 14 days followed by a 7-day drug-free recovery period (each cycle=21 days). In the absence of dose-limiting toxicities (DLTs) in the first cohort of at least 3 patients, the dose was increased using a modified Fibonacci dose escalation scheme, and BID dosing commenced according to the dose escalation schedule described in Table 28. The first patient in cohort 6 has been enrolled at 8 mg compound of structure (I) BID. The baseline demographics of the first 14 patients enrolled in the study are described in Table 26.
Plasma PK parameters of compound of structure (I) and alvocidib were evaluated in Cohorts 1-5 at specific timepoints during the study. Blood was collected from patients in Cohorts 1-5 according to the pharmacokinetic sampling schedule described in Table 29.
PK parameters were estimated using standard noncompartmental methods. Actual sample collection times were used rather than scheduled collection times. Plasma concentrations below the limit of quantification were treated as 0. Imbedded missing plasma concentrations (e.g., missing values between two observed values) were estimated using linear […]. This is consistent with using the trapezoidal rule to calculate AUC. Other missing plasma concentrations were excluded from calculations to estimate PK parameters.

[5] = system: patients with advanced solid tumors; test: Phase I study: safety, dose-limiting toxicities and treatment-emergent adverse events; assay type: in vivo, human
Text: Patients with advanced metastatic or progressive solid tumors who were refractory to, or intolerant of, established therapy known to provide clinical benefit for their condition were enrolled. Cohorts of 3-6 patients each received escalating doses of compound of structure (I) using a modified Fibonacci dose escalation approach. Once the optimal dose has been established, additional patients may be enrolled to confirm safety and to explore efficacy. This is an ongoing Phase 1, open-label, dose-escalation, safety, PK and PD study. The proposed starting dose and schedule for oral compound of structure (I) was a 1-mg flat dose once daily (QD) for 14 days followed by a 7-day drug-free recovery period (each cycle=21 days). In the absence of dose-limiting toxicities (DLTs) in the first cohort of at least 3 patients, the dose was increased using a modified Fibonacci dose escalation scheme, and BID dosing commenced according to the dose escalation schedule described in Table 28. The first patient in cohort 6 has been enrolled at 8 mg compound of structure (I) BID. The baseline demographics of the first 14 patients enrolled in the study are described in Table 26. […] DLT was defined as any one of the following events observed in cycle 1, regardless of investigator attribution, unless there was a clear alternative explanation: • 1. Grade 3 or greater febrile neutropenia • 2. Grade 4 neutropenia for ≥7 consecutive days • 3. Grade 4 thrombocytopenia or Grade 3 thrombocytopenia with clinically significant bleeding or that requires a platelet transfusion • 4. Grade 3 or 4 nonhematologic AEs will be considered dose limiting, regardless of duration aside from the specific parameters described herein • 5. Grade 4 nausea, vomiting, or diarrhea, regardless of duration • 6. […] Any Grade ≥3 elevations in creatinine • 10. Any Grade 5 toxicity

[6] = patients (% of N = 14), oral dosing, advanced solid tumors

CN1CCC(c2c(OP(=O)(O)O)cc(O)c3c(=O)cc(-c4ccccc4Cl)oc23)C(O)C1.Cl (stereo not shown) [Form A-11]
A-2 ([1]; 7 days ± 1 day): 6.6% | HPLC Purity of A-5 ([1]; 7 days ± 1 day): 91.3% | A-2 ([1]; 14 days ± 1 day): 13.7% | HPLC Purity of A-5 ([1]; 14 days ± 1 day): 84.12% | A-2 ([1]; 21 days ± 1 day): 19.0% | HPLC Purity of A-5 ([1]; 21 days ± 1 day): 78.5% | A-2 ([1]; 28 days ± 1 day): 22.2% | HPLC Purity of A-5 ([1]; 28 days ± 1 day): 75.0% | A-2 ([1]; Initial): 1.02% | HPLC Purity of A-5 ([1]; Initial): 97.0%

CN1CC[C@H](c2c(OP(=O)(O)O)cc(O)c3c(=O)cc(-c4ccccc4Cl)oc23)[C@H](O)C1 [Form A]
decomposition ([2]; 40° C. and 75% relative humidity for one week): accelerated decomposition | degradation to compound A-2 ([2]; after 10 days at room temperature): 6.85% | degradant trends ([2]; stored at −20° C.): no degradant trends | A-2 ([1]; 7 days ± 1 day): 0.88% | HPLC Purity of A-5 ([1]; 7 days ± 1 day): 98.6% | A-2 ([1]; 14 days ± 1 day): 2.2% | HPLC Purity of A-5 ([1]; 14 days ± 1 day): 97.5% | A-2 ([1]; Initial): 0.44% | HPLC Purity of A-5 ([1]; Initial): 99.2% | weight of water taken in (DVS), hygroscopicity [3]: 12.5%

CN1CC[C@H](c2c(O)cc(O)c3c(=O)cc(-c4ccccc4Cl)oc23)[C@H](O)C1 [alvocidib, 2-(2-chlorophenyl)-5,7-dihydroxy-8-[(3S,4R)-3-hydroxy-1-methylpiperidin-4-yl]chromen-4-one]
Tmax ([4]; Cohort 5, 6 mg BID oral Formulation No. 401-01, Cycle 1 Day 1, Mean of subjects 501-503): 60 min | Tmax ([4]; Cohort 5, 6 mg BID oral Formulation No. 401-01, Cycle 1 Day 1, Subject 501): 30 min | Tmax ([4]; Cohort 5, 6 mg BID oral Formulation No. 401-01, Cycle 1 Day 1, Subject 502): 120 min | Tmax ([4]; Cohort 5, 6 mg BID oral Formulation No. 401-01, Cycle 1 Day 1, Subject 503): 30 min | Tmax ([4]; Cohort 5, 6 mg BID oral Formulation No. 401-01, Cycle 1 Day 14, Mean of subjects 501-503): 60 min | Tmax ([4]; Cohort 5, 6 mg BID oral Formulation No. 401-01, Cycle 1 Day 14, Subject 501): 30 min | Tmax ([4]; Cohort 5, 6 mg BID oral Formulation No. 401-01, Cycle 1 Day 14, Subject 502): 120 min | Tmax ([4]; Cohort 5, 6 mg BID oral Formulation No. 401-01, Cycle 1 Day 14, Subject 503): 30 min

CN1CC[C@H](c2c(OP(=O)(O)O)cc(O)c3c(=O)cc(-c4ccccc4Cl)oc23)[C@H](O)C1 [compound of structure (I), 2-(2-chlorophenyl)-5-hydroxy-8-((3S,4R)-3-hydroxy-1-methylpiperidin-4-yl)-4-oxo-4H-chromen-7-yl dihydrogen phosphate]
toxicity observed to date ([5]; oral, Cohorts to date, patients with advanced solid tumors): no unexplained toxicity, and no evidence of dose-limiting diarrhea or neutropenia | Treatment-emergent adverse events grade ≥ 3: Anemia, Grade 3 [5, 6]: 1 (7%) | Treatment-emergent adverse events grade ≥ 3: Chest Pain, Grade 3 [5, 6]: 1 (7%) | Treatment-emergent adverse events grade ≥ 3: Haematuria, Grade 3 [5, 6]: 1 (7%) | Treatment-emergent adverse events grade ≥ 3: Hypotension, Grade 3 [5, 6]: 1 (7%) | Treatment-emergent adverse events grade ≥ 3: Hypoxia, Grade 3 [5, 6]: 1 (7%) | Treatment-emergent adverse events grade ≥ 3: Malignant Pleural Effusion, Grade 3 [5, 6]: 1 (7%) | Treatment-emergent adverse events grade ≥ 3: Pain, Grade 3 [5, 6]: 1 (7%) | Treatment-emergent adverse events grade ≥ 3: Swelling, Grade 3 [5, 6]: 1 (7%)
